Measured values reported in US20100298352A1, “SMALL MOLECULE INHIBITORS OF CANCER STEM CELLS” (University of Pittsburgh - Of the Commonwealth System of …, priority 2009, published 2010).

Legend:
Type in all cases: cell-based, human
[1] = tested on: Oct3/4-GFP+ MCF7 cells; experiment: Screen for selective inhibition of Oct3/4-GFP+MCF7 cells (GFP level / cell viability, 384 well plates); details: initial screen; 3 day exposure, 5 μM, triplicate samples, relative changes in GFP levels
Experimental: MCF7 cells were used as the target population. Control cells consisted of Oct3/4-GFP-cells that were infected with a GFP-expressing lentivirus as a way of controlling for GFP expression. Initial screenings were performed in 384 well plates on triplicate samples. A fluorescent plate reader was used to quantify relative changes in GFP levels after a 3 day exposure to a 5 μM concentrations of each compound. […] These experiments were performed in 12 well plates in which 2000 cells/well were initially seeded and allowed to attach for one day. The following day (day 0), the medium was replaced with fresh medium containing the indicated concentrations of each compound. Cell counts were then performed manually on triplicate wells. Bars represent standard errors.
The cell viability assay was performed as follows:
Trypsinize cell and resuspend in MCF7 culture medium at a density of 4×10^4/ml Culture medium: alpha MEM, 10% FBS, 2 mM Glutamine, 1 mM Sodium Pyruvate, 1 mM non-essential amino acids, 100 U/ml Penicillin/Streptomycin
(1) dilute compounds to 30 μM using alpha MEM
(2) add 5 μl compounds to each well (final concentration 5 μM)
(3) add 25 μl cell suspension to each well (1000 cells/well)
(4) incubate cells with compounds for 72 hours at 37° C., 5% CO2
3. […] The plates were then read on SpectraMax M5 Microplate Reader using the wavelength of excitation 560 nm/emission 590 nm.

[2] = tested on: MCF7 cells and Oct3/4-GFP+MCF7 cell population; experiment: Hoechst 33342 side population (SP) exclusion; details: exposure to 20 μM Reserpine; SP fractions of MCF7 and Oct3/4-GFP+MCF7 cells
Experimental: In other studies, Oct3/4-GFP+MCF7 cells were examined by qRT-PCR for expression of the breast cancer CSC markers CD133 and Oct3/4. After normalizing to GAPDH, the ratios of these transcripts in Oct3/4-GFP+MCF7 cells and non-CSC-MCF7 cells were 6.3 for CD 133 and 2.5 for Oct3/4. […] The SP is due to CSCs ability to exclude the dye Hoechst 33342 and reflects high expression of ABCG2 transporters such as MDR1 and BRCP. […] These fractions could also be reduced by >70% following exposure to 20 μM Reserpine, which inhibits ABC transporters. Moreover, the overall mean fluorescence intensity of the entire Oct3/4-GFP+MCF population was two-fold lower than that of the MCF7population. Thus, based on independent qRT-PCR assessments of CSC gene expression profiles and on uptake/exclusion of Hoechst 33342, one can conclude that the Oct3/4-GFP+MCF7 population consists of highly enriched and stable cells that are unable to differentiate into TACs.

[3] = tested on: Oct3/4-GFP+MCF7 cells versus unfractionated MCF7 cells; experiment: Differential chemotherapeutic responses, viable adherent cell counts by trypan blue exclusion; details: FIG. 6; viable adherent cells over time
Experimental: FIG. 6. Differential chemotherapeutic responses of MCF7 and Oct3/4-GFP+MCF7 cells. 10^5 unfractionated, MCF7 cells (dotted line) or Oct3/4GFP+MCF7 cells (broken line) were seeded into 6 well plates and allowed to achieve ca. 30-50% confluence. The indicated concentrations of adriamycin, etoposide, 5-fluorouracil, cis-platinum, methotrexate, and taxol were then added (day 0). The total number of viable adherent cells was then determined at the indicated times by trypan blue exclusion. […] Note that in most cases Oct4/4-GFP+MCF7 actually grew in the presence of all agents. These experiments were repeated at least two additional times with similar outcomes.
Differential chemosensitivities of Oct3/4-GFP+MCF7 cells. It is believed that CSCs are more resistant to chemotherapeutic agents than TACs, thus at least partly accounting for the propensity of many tumors to relapse after an initial response. To test this idea, MCF7 cells and Oct3/4-GFP+MCF7 CSCs were exposed to six different chemotherapeutic agents commonly employed to treat breast cancer.

Compound | selectivity for Oct3/4-GFP+MCF7 cells over control GFP-lentivirus cells [1] | other results
Cl.NC[C@@H]1O[C@H](C23CC4CC(CC(C4)C2)C3)Cc2c1ccc(O)c2O [A77636] | potentially selective agents | –
COC(=O)[C@H]1[C@H]2C[C@@H]3c4[nH]c5cc(OC)ccc5c4CCN3C[C@H]2C[C@@H](OC(=O)c2cc(OC)c(OC)c(OC)c2)[C@@H]1OC [Reserpine] | – | reduction of side population (SP) fractions [2]: > 70%
CC(=O)c1c(O)c(C)c(O)c(Cc2c(O)c3c(c(C(=O)/C=C/c4ccccc4)c2O)OC(C)(C)C=C3)c1O [Rottlerin, 5,7-dihydroxy-2,2-dimethyl-6-(2,4,6-trihydroxy-3-methyl-5-acetylbenzyl)-8-cinnamoyl-1,2-chromene] | potentially selective agents | –
CC(=O)O[C@H]1C(=O)[C@@]2(C)[C@H]([C@H](OC(=O)c3ccccc3)[C@]3(O)C[C@H](OC(=O)[C@H](O)[C@@H](NC(=O)c4ccccc4)c4ccccc4)C(C)=C1C3(C)C)[C@]1(OC(C)=O)CO[C@@H]1C[C@@H]2O [taxol] | – | sensitivity/resistance of Oct3/4-GFP+MCF7 cells relative to MCF7 cells [3]: significantly more sensitive
